Reference: PubChem BioAssay (NCI)
Several values for one entry are separate records, joined by “and”; a condition that tells them apart may be missing. Identical values can stand only once.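 96-well plates; 48 h exposure; 5 concentrations. Endpoints by linear interpolation between flanking doses. Not reached: highest tested concentration assigned. GI50 marks 50% less growth. TGI marks complete inhibition of growth.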

What was measured:
Test in all cases: DTP human tumour cell line panel, 48 h
PC-3 prostate = test system: PC-3 prostate
786-0 renal = test system: 786-0 renal
MCF7 breast = test system: MCF7 breast
BT-549 breast = test system: BT-549 breast
MDA-N = test system: MDA-N
HCT-15 colon = test system: HCT-15 colon
MDA-MB-435 = test system: MDA-MB-435
MDA-MB-231 breast = test system: MDA-MB-231 breast
T-47D breast = test system: T-47D breast
HOP-18 NSCLC = test system: HOP-18 NSCLC
LXFL 529 NSCLC = test system: LXFL 529 NSCLC

Compound	TGI (PC-3 prostate) [µM]	TGI (786-0 renal) [µM]	TGI (MCF7 breast) [µM]	TGI (BT-549 breast) [µM]	TGI (MDA-N) [µM]	TGI (HCT-15 colon) [µM]	TGI (MDA-MB-435) [µM]	TGI (MDA-MB-231 breast)	TGI (T-47D breast) [µM]	TGI (HOP-18 NSCLC) [µM]	GI50 (PC-3 prostate)	GI50 (MCF7 breast) [µM]	GI50 (LXFL 529 NSCLC) [µM]	TGI (LXFL 529 NSCLC)	GI50 (HCT-15 colon) [µM]	GI50 (MDA-MB-435)	GI50 (MDA-MB-231 breast)	GI50 (T-47D breast)	GI50 (HOP-18 NSCLC) [µM]
CCCC[C@H]1C(=O)O[C@H](C)[C@H](NC(=O)c2cccc(NC=O)c2OC)C(=O)O[C@@H](C)[C@@H]1OC(=O)CC(C)C (tested in a mixture with another compound)	32.6	29.3	28.1	40.1	50.3	51.2	25.6	29.8 µM	44.5										
O=c1c(-c2ccccc2)c(SCCN2CCOCC2)n(-c2ccccc2)c(=S)n1-c1ccccc1	> 100		> 100	> 100		> 100	> 100	> 100 µM											
Cc1ccc(C(=O)Nc2ncn(C3CC(O)C(CO)O3)c(=O)n2)cc1 (centres undefined)			> 100			> 100				> 100									
C=C1CC2C3C=C(C)C4=CC(=O)CC[C@]4(C)C3CC[C@]2(C)[C@@]1(OC(C)=O)C(C)=O (some centres undefined)	> 100		> 100								2.55 µM	4.16							
Cc1cc2c(cc1Cl)SC(c1ccccc1O)NS2(=O)=O (centres undefined)	> 100	> 100	> 100	> 100		> 100	> 100	> 100 µM	55.1										
C[C@H]1CCC/C=C/[C@@H]2C[C@H](O)C[C@H]2[C@H](O)/C=C/C(=O)O1								0.0821 µM and 0.0399 µM		2.41	< 0.0202 µM and 0.0475 µM and 0.0478 µM	0.0417	0.031	0.0285 µM and 0.11 µM	0.104	< 0.0173 µM and 0.0369 µM and 0.0449 µM	< 0.01 µM and 0.0205 µM and 0.0547 µM	0.0809 µM and 0.619 µM	
CCCCCCCCCCCCCCCCCC(=O)OCC1OC(OC)C(NC(=O)N(CCCl)N=O)C(O)C1O (centres undefined)						> 100				> 100				37.5 µM					
CCOC(=O)C12CC(C)=C(C)CC1CCCc1ccccc12 (centres undefined)	68.1	> 100	35.2	> 100	86.6	59.8	97.2	31.5 µM	55.5										
COc1ccc(N=Cc2ccc(N(CCC#N)S(=O)(=O)c3ccccc3)cc2C)cc1						> 100				> 100				> 100 µM					
COc1cc(/C=C2\N=C(c3ccccc3)N(c3nc4ccc(Sc5ccccc5)cc4[nH]3)C2=O)cc(OC)c1OC	> 100	42.4	45.9	55.1	24.7	> 100	23	50.3 µM	> 100										
CCOC(=O)/C(=C\NC(C)(C)CO)c1nc2ccccc2[nH]1		> 100	> 100	> 100	> 100	> 100	> 100												
O=c1[nH]c2cc([N+](=O)[O-])c(N/N=C/c3ccc(Cl)cc3Cl)c([N+](=O)[O-])c2[nH]1	> 100	> 100	> 100	> 100	> 100	> 100	> 100	60.5 µM	> 100										
O=C([CH-]C(=O)c1ccccc1)c1ccccc1.O=C([CH-]C(=O)c1ccccc1)c1ccccc1.O=C([CH-]C(=O)c1ccccc1)c1ccccc1.[Cl-].[Hf+4]						> 100				24.8					12.5				5.66
CC(C)(C)c1cc(-c2nc3ccc(N4CCN(CCO)CC4)cc3[nH]2)cc(C(C)(C)C)c1O						3.05			> 100						1.55			2.86 µM	
O=C1CS(=O)(=O)C(c2cccc(Oc3ccccc3)c2)N1C1CC1 (centres undefined)	66.2	> 100	58	> 100	80.1	> 100	75.1	> 100 µM	> 100										
N#Cc1c(-c2ccc(Cl)cc2)c2c([nH]c1=O)-c1cc([N+](=O)[O-])ccc1CCC2	> 100	79.9	83	36.3	> 100	47.6	> 100	57.3 µM	> 100										

Compound	TGI (PC-3 prostate) [µM]	TGI (786-0 renal) [µM]	TGI (MCF7 breast) [µM]	TGI (BT-549 breast) [µM]	TGI (MDA-N) [µM]	TGI (HCT-15 colon) [µM]	TGI (MDA-MB-435) [µM]	TGI (MDA-MB-231 breast)	TGI (T-47D breast) [µM]	TGI (HOP-18 NSCLC) [µM]	GI50 (PC-3 prostate)	GI50 (MCF7 breast) [µM]	GI50 (LXFL 529 NSCLC) [µM]	TGI (LXFL 529 NSCLC)	GI50 (HCT-15 colon) [µM]	GI50 (MDA-MB-435)	GI50 (MDA-MB-231 breast)	GI50 (T-47D breast)	GI50 (HOP-18 NSCLC) [µM]
COc1cc(C2C(=O)C(Cl)N2Nc2nc(C)cc(=O)[nH]2)cc(OC)c1OC (centres undefined)						31.9				28.1				29.7 µM					
CCN(CCO)CCNc1ccc(C)c2sc3ccccc3c(=O)c12	12.7	8.57	3.24	26.7	3.16	10.8	3.74	5.32 µM	7.43	24.3				10.4 µM					
O=c1[nH]c(=O)n(CCOCP(=O)(O)O)nc1Br	> 100		> 100	> 100	> 100	> 100	> 100	> 100 µM	> 100										
Cc1ccc2c3c1[C@@H]1O[C@@H]1c1cccc(c1-3)[C@@H]1O[C@H]21	30.7		34.8	32.7	30.5	36.7	31.4	36.2 µM	20.9										
O=S(=O)(O)c1ccc2c(N=Nc3ccccc3)c(O)ccc2c1	> 100	> 100	> 100	> 100	> 100	> 100	> 100	> 100 µM	> 100										
COc1ccc(N=Nc2c(N)nn(C)c2N)cc1		> 100				> 100				> 100				> 100 µM					
CCCCCCCCCCCCSC(=S)c1c(C)[nH]n(CCCCCCCCCCCC)c1=O						> 100				> 100				> 100 µM					
N=C(N)c1ccc(N=Nc2c(O)ccc3cc4c(N=Nc5ccc(C(=N)N)cc5)c(O)ccc4cc23)cc1	> 100	> 100	> 100	> 100	> 100	> 100	> 100	> 100 µM	> 100										
CN1NC(c2ccccc2)=C(C#N)C(=O)CC1c1ccc(F)cc1 (centres undefined)						> 100				> 100				> 100 µM					
Cn1c(=O)ccc2c(=O)c3ccccc3oc21	> 100				> 100	> 100	> 100	> 100 µM	> 100										
NC(=O)CCSC(CC(=O)c1ccc(Cl)cc1)c1ccc(Cl)cc1 (centres undefined)	> 100	> 100	47.4	80	59.8	31.5	39.9	> 100 µM	57.3										
C/C(=C\C(=N\NC(=N)N)c1ccccc1)c1ccccc1	3.21	11.3	1.58		2.7	14.7	2.97		2.81										
Cc1cn(Cc2cn(CC3OC(n4cc(C)c(=O)[nH]c4=O)CC3O)nn2)c(=O)[nH]c1=O (centres undefined)	> 100		> 100	> 100	> 100	> 100	> 100	> 100 µM	> 100										
Cc1cc(=O)n2c3c(c4c(cc13)c(CN(C)C)cc(=O)n4C)OC2	> 59.2	> 100	> 60.5	83.8	> 87.7	> 56.7	> 58.2	98.7 µM	> 100										
COP(=O)(OC)[C@H](O)[C@H]1C[C@@H]1c1ccccc1	> 100		> 100	> 100		> 100	> 100	> 100 µM	> 100										
